The source of these data is patent US20080279812A1, “Disease Prevention and Vaccination Prior to Thymic Reactivation” (Norwood Immunology, Ltd., priority 2003, published 2008).

The subject of assay [1] is sex steroid levels. Briefly: Sex steroid ablation therapy of a patient with an LHRH agonist (Example 6). The class given is in vivo, human. The settings on record: single dose effective for 3 months. As to the method: The patient was given sex steroid ablation therapy in the form of delivery of an LHRH agonist. This was given in the form of either Leucrin (depot injection; 22.5 mg) or Zoladex® (implant; 10.8 mg), either one as a single dose effective for 3 months. […] In some cases it is also necessary to deliver a suppresser of adrenal gland production of sex steroids. Cosudex® (5 mg/day or 50 mg/day) may also be given as one tablet per day for the duration of the sex steroid ablation therapy. Alternatively, the patient is given a GnRH antagonist, e.g., Cetrorelix or Abarelix, as a subcutaneous injection

For assay [2], the system named is pituitary LH, serum testosterone. The following applies: chronic administration, cited from earlier work.
For assay [3], the system named is sex steroid levels. Briefly: Zoladex before autologous or allogeneic PBSCT (Example 31). The class given is in vivo, human. The settings on record: implant from day -21 before PBSC infusion. The procedure: Patients are male or female, aged 18 years or older that are due to undergo high-dose therapy (HDT) with PBSCT for malignant disease or BM failure. The 10.8 mg implant formulation (for men) of the Zoladex® is dispersed in a cylindrical rod of biodegradable and biocompatible polyglactins and is released continuously over 12 weeks following subcutaneous injection. The 3.6 mg implant (for women) is dispersed in a cylindrical rod of a biodegradable and biocompatible polyglactin and is released continuously over 28 days following subcutaneous injection. The implants are commercially supplied in a purpose-designed applicator with 14-16 gauge needles.
Reduction of sex steroids in the blood to minimal values may take several weeks. Consequently, 21 days prior to PBSC infusion (day 0), patients are injected with the sex steroid ablation therapy in the form of LHRH agonist Zoladex® (implant). For males, 10.8 mg goserelin as a single dose (effective for 3 months) are administered on day −21 with a further injection of 3.6 mg on day 63 (effective for 28 days). For females, 3.6 mg (effective for 28 days) are administered on day −21 and days 7, 35 and 63. […] Other doses may be deemed acceptable as determined readily by those skilled in the art. […]
Thymic function is determined by assessment of T cell subsets by flow cytometry, T cell responses in vitro, and production of TRECs.

Bounds are passed on as bounds.

In the case of `CC(C)C[C@H](NC(=O)[C@@H](COC(C)(C)C)NC(=O)[C@H](Cc1ccc(O)cc1)NC(=O)[C@H](CO)NC(=O)[C@H](Cc1c[nH]c2ccccc12)NC(=O)[C@H](Cc1cnc[nH]1)NC(=O)[C@@H]1CCC(=O)N1)C(=O)N[C@@H](CCCNC(=N)N)C(=O)N1CCC[C@H]1C(=O)NNC(N)=O` [Zoladex®, goserelin acetate], the “reduction of sex steroid levels” value in assay [1] and in assay [3] was “effective in reducing sex steroid levels sufficiently to reactivate the thymus” in each case. The “time to sustained suppression of pituitary LH” value in assay [2] (after initiation of therapy) is at most 3 weeks. The “serum testosterone levels in males” value in assay [2] is reported as “range normally seen in surgically castrated men”.
